Key:
Type in all cases: cell-based, human
[1] = test system: HCT116 cells; test: β-gal positive foci in pCAROF-transfected MMR defective cells exposed to chemical mutagen; details: 10 μM for 8 hours, 1,000 cells/plate, grown 10 days, triplicate
Source text: To enhance the rate of genetic mutations and produce cells with altered genes, RNA expression, or polypeptides, the use of MMR deficiency and chemical mutagens is a powerful tool to generate such diversity. The advantages of using MMR defective cells is that the decrease of this activity renders cells more resistant to the toxic effects of such compounds yet allows for the increase in genetic and phenotypic alterations of a host organism or cell. […] Cells that are genetically defective for MMR such as but not limited to HCT116, DLD-1, etc. or cells such as those described in example 1 and 2 that are made MMR defective by ectopic expression of a dominant negative allele is covered under this invention. Briefly, MMR proficient and deficient cells are incubated with a range (1 nm to 1 mM) of chemical mutagens for 1 hour to 24 hours at 37 C at 5% CO2 in growth medium. After incubation is complete, chemical mutagens are washed from medium and cells are grown in the presence of hypoxanthine, aminopterin, and […] to score for HPRT mutant cells as previously described (Walker, V E et. al. Mutat Res. 17:371-388, 1999.) and known to those skilled in the art. […] After 14 days, the numbers of HAT-resistant colonies are determined by counting under the microscope. […] Cells were grown for 10 days and scored for β-gal activity using methods described in EXAMPLE 1. […]

[2] = test system: HCT116 cells expressing PNP; test: MPD killing assay; details: 50-300 μM, 10 days
Source text: (§1) The use of cells with defective MMR repair due to defects of endogenous genes such as but not limited to the HCT116, DLD-1, and HEC-1-A cells lines (ref. 12, 25 and Kondo, et. al. J Biochem 125:818-825, 1999) can be useful for altering the genetic structure of genes to produce commercially viable variant molecules such as novel anti-microbial agents, bioactive growth factors or hormones, altered antibody structures, etc. The utility and value of such a cell is that once an altered gene structure has been produced, the integrity of this gene alteration can be preserved in the cell's genome by making the cell genetically stable via the introduction of a functional complementing MMR gene. […] The polyPNP gene encodes for a non-functional PNP gene. When the poly-A tract is randomly altered by genetic alterations due to defective MMR, the tract is randomly altered, allowing for the production of a functional PNP gene and polypeptide. PNP converts the non-toxic 9-(β-D-2-deoxy-erythro-pento-furanosyl)-6-methyl-purine prodrug (referred to as MPD) substrate to the toxic 6-methyl purine analog (referred to as MP) (Sorscher, E J, et. al. Gene Therapy 1:233-238, 1994). The polyPNP gene was engineered to contain a hemaglutinin epitope tag at the C-terminus to facilitate the detection of the encoded polypeptide via western blot analysis using an anti-HA antibody. The polyPNP gene was cloned into the pCEP4 expression vector, which has a hygromycin resistance (Hyg) gene for selection. A homologous gene called PNP was also made in which an in-frame polyA tract is cloned into the N-terminus of the gene as a positive control for PNP activity. Briefly, the MMR defective HCT116 cell line and the MMR proficient HEK293 cell line were transfected with the polyPNP, the PNP expression vector, or an empty pCEP4 vector. Cells were then selected for Hyg resistance and clones were isolated. Expanded cells were grown in the presence of increasing amounts of MPD (0, 1, 10, 50, 100, 300 μM) for 10 days. After treatment period, cells were counted by hemocytometer and trypan blue exclusion.
(§2) Cells were transfected with PNP and/or MLH1 expression vectors using liposomes following the manufacturer's protocol (Gibco/BRL). Stably transfected cell lines were generated that express empty vector, PNP or polyPNP by transfection followed by hygromycin selection. For complementation experiments, HCT116 cells were transfected with PNP/MLH1, PNP/MLH1stop, polyPNP/MLH1 or polyPNP/MLH1 stop at a 1:1 ratio using 5 μg of each plasmid and cells were selected for hygromycin and neomycin resistance. After 10 days, drug-resistant colonies were observed and picked for analysis.
(§3) For MPD killing assay, cells were plated at 2×10^4 cell/ml and 1 ml aliquots were plated in 24-well costar tissue culture dishes. For killing assays, cells were plated in 0, 1, 10, 50, 100, and 300 μM MPD in triplicate. Cells were grown for 10 days trypsinized and counted on hemocytometer using trypan blue exclusion. Data are presented as a mean+/−SD for each study.

[3] = test system: HCT116/polyPNP cells; test: MPD killing assay; details: 10 days
Source text: as §1, §2, §3

[4] = test system: HEK293 cells expressing PNP; test: MPD killing assay; details: 50-300 μM, 10 days
Source text: as §1, §2, §3

[5] = test system: HEK293/polyPNP cells; test: MPD killing assay; details: highest concentration (300 μM), 10 days
Source text: as §1, §2, §3

[6] = test system: HCT116 cells cotransfected with polyPNP and pC9MLH constructs; test: MPD killing assay, MLH1 complementation; details: 300 μM
Source text: The restoration of genetic stability and the subsequent imprint of an altered gene locus or loci is an important invention of this application for producing viable biological products, whereby altered biomolecules, cells or whole organisms with desired altered output traits are made genetically stable for long term use. To generate stable MMR defective cell lines that has or has not been exposed to chemical mutagens and selected for desired genetic changes, the introduction of a complementing MMR gene that can substitute for the mutated endogenous MMR gene locus is taught in this application. […] In this example, a mammalian expression vector is used that encodes for the functional MLH1 polypeptide (pC9MLH1) or an expression vector that encodes for a MLH1 cDNA with a premature stop codon (pC9MLHstop). These expression vectors contain a neomycin (neo) resistance gene that allows for selection of cells containing this vector. […] Cells were selected for 10 days in neo and Hyg and resistant clones were isolated and expanded. Cells were then cultured in the presence of MPD and counted for growth after 10 days. […]
For MPD killing assay, cells were plated at 2×10^4 cell/ml and 1 ml aliquots were plated in 24-well costar tissue culture dishes. […] Cells were grown for 10 days trypsinized and counted on hemocytometer using trypan blue exclusion. […]

SMILES | number of β-gal positive foci [1] | growth suppression [2] [%] | decrease in cell numbers ([3]; 100 μM) [%] | decrease in cell numbers ([3]; 300 μM) [%] | growth suppression [4] [%] | decrease in cell growth (in words) [5] | decrease in total cell growth compared to medium alone ([6]; cells expressing MLH1 (pC9MLH1) plus polyPNP) [%] | reduction in cell growth compared to medium alone ([6]; cells transfected with MLHstop or empty vector and polyPNP) [%]
CCOS(C)(=O)=O [EMS, ethyl methanesulfonate] | 205+/−18 per dish |  |  |  |  |  |  | 
Cc1ncnc2c1ncn2[C@H]1C[C@H](O)[C@@H](CO)O1 [MPD, 9-(β-D-2-deoxyerythropentofuranosyl)-6-methyl-purine] |  | 100 | 20 | 30 | 100 | no decrease in cell growth | 2 | 35
